Where two headings read alike, the source gives them in different places.
Key:
[1] = cited from earlier work
[2] = Stability on storage at 40 °C/75% RH (PXRD, 19F NMR, HPLC); format: physicochemical; details: 2 weeks, 40 °C/RH 75%; for Drug content reduction (%): HPLC
Protocol: The salt form of DLM was prepared using a Buchi Rotavapor-R (Newcastle, Delaware). DLM free base and sulfonic acid were added at drug-acid 1:1 molar ratio in a mixture of DCM and acetone (1:1 v/v) where alcoholic solvents were avoided to prevent the formation of alkyl esters during salt synthesis. Solvents were removed by rotary evaporation at 40 °C. DLM salts were then kept under vacuum at room temperature overnight to remove residual solvents. DLM salts were characterized by ^1H-nuclear magnetic resonance (NMR) spectroscopy to confirm salt formation. Their physical and chemical stability were monitored following storage at 40 °C/75% relative humidity (RH) by measuring several physicochemical properties, including crystallinity (by powder X-ray diffraction, PXRD), impurities (by ^19F NMR spectroscopy), drug content (by HPLC as described above) and hygroscopicity (using dynamic vapor sorption analysis).
(§1) Crystallinity of ASDs and DLM salts was evaluated using a Rigaku Smartlab diffractometer (Rigaku Americas, The Woodlands, TX) equipped with a Cu–Kα radiation source and a D/tex ultradetector. Samples were added to glass sample holders, and powder patterns were recorded over the range of 4-40° 2θ at a scanning speed of 4° per min and a 0.02° step size with the voltage and current set to 40 kV and 44 mA, respectively.
Salt formation was confirmed by ^1H nuclear magnetic resonance (NMR) spectroscopy and impurities in DLM salts following preparation and storage were detected by ^19F NMR spectroscopy. Samples were dissolved in dimethyl sulfoxide-d6 (Cambridge Isotope Laboratories, Inc., Andover, MA) at a concentration of 20 mg/mL. All NMR spectra were acquired on a Bruker DRX 500 MHz spectrometer (Karlsruhe, Germany) equipped with a BBFO z-gradient probe operating at room temperature. For ^1H NMR spectra, the spectral sweep width was 20 ppm, acquisition time was 1.6 sec and number of scans was 16. For ^19F NMR spectroscopy, ^1H was decoupled during acquisition, spectral sweep width was 50 ppm, acquisition time was 1.4 sec and the number of scans was 64.

[3] = Glass transition temperature by DSC; format: physicochemical; details: for Tg: neat drug, salt or polymer
Protocol: The glass transition temperatures (Tg) of drug, polymers and ASD samples were determined using a TA Q2000 DSC equipped with an RCS90 refrigeration unit (TA Instruments, New Castle, DE). The temperature calibration was performed using indium and tin, while enthalpy calibration was conducted with indium. Samples (5–10 mg) were added to aluminum pans with a pinhole lid (Tzero pan, TA Instrument, DE). […] The heating and cooling cycle was repeated 3 times to remove residual solvent and thermal history, and the last cycle was used for analysis.

Water sorption analysis = format: physicochemical; details: for Water sorption (%) at 95 % RH: 37 °C
Protocol: Water sorption profiles of DLM salts and ASDs were measured by using a SGA-100 symmetrical gravimetric analyzer (TA Instrument, New Castle, DE) at 37 °C. Samples (10–20 mg) were flushed with dry air for 3 h. After drying, samples were exposed to increasing relative humidity (RH) steps from 5 to 95% with a maximum step time of 180 min. Vapor sorption profiles are recorded as the equilibrium value (the weight change was below 0.001%/min over 5 min) at each RH.

[4] = Nucleation induction time measurement; format: physicochemical; details: for Induction time (tind): 37 °C, no polymer
[5] = Release testing of tablets, two-stage pH-shift (pH 1.6 to 6.5); format: physicochemical
Protocol: (§2) The ASDs were mixed with excipients and compressed to obtain tablets containing 5 mg DLM with respect to the free base. All dissolution studies of DLM tablets were conducted in triplicate in single-stage or two-stage pH-shift condition using a Hanson Vision G2 Classic 6 dissolution system (Teledyne Hanson Research, Chatsworth, CA). For single-stage testing, the tablets containing the ASDs were added to 50 mL PBS, pH 6.5 and monitored for 1 h at 37° C, with 150 rpm of stirring. For pH-shift experiments, release in the acidic stage was conducted in 45 mL HCl solution pH 1.6 for 1 h, followed by addition of 5 mL concentrated PBS (pH 7.3) to adjust the pH of solution to pH 6.5 and drug release was monitored for an additional 30 min. An in situ Rainbow fiber optic ultraviolet spectrometer coupled with 10 mm fiber optic dip probes (Pion, Billerica, MA, USA) was used to monitor drug concentration over time. Second derivative analysis was applied to correct the spectral baseline and a calibration curve of area under curve (AUC) of the range 330–350 nm was used to calculate the drug concentration.

[6] = Dynamic light scattering of DLM-rich nanodroplets; format: physicochemical; details: HPMCP and HPMCAS solutions 300 µg/mL, drug 50 µg/mL, PBS pH 6.5, 3-h period
Protocol: The size of DLM-rich droplets formed above the amorphous solubility was measured by dynamic light scattering (DLS) using a Nano-Zetasizer (Nano-ZS, Malvern Instruments, Westborough, MA). […] To evaluate the impact of polymers on nanodroplet stability, polymers were pre-dissolved in solution at a concentration of 300 μg/mL and drug was introduced at 50 μg/mL. Samples were monitored for up to 3 h after liquid–liquid phase separation was initiated.

[7] = set-up: method as in earlier work; details: predicted pKa; cited from earlier work
[8] = cited from earlier work; remark: listed apart in the source
[9] = Release testing of tablets, single-stage PBS pH 6.5; format: physicochemical; details: PBS pH 6.5, single stage
Protocol: as §2

[10] = set-up: method as in PMID 24881816; details: predicted log P calculated by ALOGPS; cited from earlier work
[11] = Crystallinity by PXRD following preparation; format: physicochemical; details: immediately following preparation
Protocol: as §1

[12] = value of the strongest acidity, ref [3, 4] of supplement
[13] = value of the strongest acidity, ref [2] of supplement

For `CC1(C)C2CC[C@@]1(CS(=O)(=O)O)C(=O)C2` [Camphorsulfonic, (1S)-(+)-10-camphorsulfonic acid], the pKa ([1]; value of the strongest acidity, ref [6] of supplement) is given as 1.2 [6].
With `CC1(C)[C@@H]2CC[C@@]1(CS(=O)(=O)O)C(=O)C2.C[C@]1(COc2ccc(N3CCC(Oc4ccc(OC(F)(F)F)cc4)CC3)cc2)Cn2cc([N+](=O)[O-])nc2O1` [Camsylate] the “Impurity (19F NMR) (%)” value [2] was 2.0%, the “Drug content reduction (%)” value [2] was 6.1% and the Tg [3] was 97.9 °C. The “Water sorption (%) at 95 % RH” value (Water sorption analysis) was 8.1%.
In the case of `C[C@]1(COc2ccc(N3CCC(Oc4ccc(OC(F)(F)F)cc4)CC3)cc2)Cn2cc([N+](=O)[O-])nc2O1` [Delamanid], the Induction time ([4]; PBS pH 6.5, Eud-L100 300 µg/mL) is reported as 10.2 ± 3.1 min, the Induction time ([4]; PBS pH 6.5, HPMC 300 µg/mL) is reported as “about 50 min” and the Induction time ([4]; PBS pH 6.5, HPMCAS 300 µg/mL) is reported as “more than 1000 min”. The Induction time ([4]; PBS pH 6.5, HPMCP 300 µg/mL) was “more than 1000 min”, the Induction time ([4]; PBS pH 6.5, PVPVA 300 µg/mL) was “more than 1000 min” and the Induction time ([4]; in presence of PVPVA, HPMCAS or HPMCP) was greater than 720 min. The “Drug concentration released in acid stage” value ([5]; pH-shift experiment, low pH (1.6) stage) was “around 20 µg/mL”, the pKa [1] was 4.3 and the Nanodroplet size change [6] was “no notable change”. For the same compound, the “Glass forming ability class” value ([3]; cooling from the melt at 50 °C/min) was “Class I”, the Tg [3] was 43.3 °C and the Tg ([3]; listed as delamanid free base) was 43.3 ± 0.4 °C. The pKa [7] was 3.99, the “Log P” value [8] was 5.67 and the “Hygroscopicity (in words)” value (Water sorption analysis) was “non-hygroscopic”. The “Drug release (in words)” value [9] was “no release was detected” and the “Log P” value [10] was 6.14.
In the case of Tosylate, the “Induction time (tind)” value ([4]; FaSSGF (pH 1.6), at amorphous solubility) is reported as 1.0 min, the “Induction time (tind)” value ([4]; PBS pH 6.5, at amorphous solubility) is reported as 18.5 min and the “Impurity (19F NMR) (%)” value [2] is reported as 1.0%. For the same compound, the Liquefaction [2] was “liquefaction”, the “Drug content reduction (%)” value [2] was 2.1% and the Tg [3] was 90.2 °C. For the same compound, the “Water sorption (%) at 95 % RH” value (Water sorption analysis) was 6.1%.
With `C[C@]1(COc2ccc(N3CCC(Oc4ccc(OC(F)(F)F)cc4)CC3)cc2)Cn2cc([N+](=O)[O-])nc2O1.C[C@]1(COc2ccc(N3CCC(Oc4ccc(OC(F)(F)F)cc4)CC3)cc2)Cn2cc([N+](=O)[O-])nc2O1.O=S(=O)(O)CCS(=O)(=O)O` [Edisylate (2:1)] the “Release in acidic medium (in words)” value ([5]; acid stage of pH-shift experiment) was “slightly higher than that observed for DLM free base”, the “Impurity (19F NMR) (%)” value [2] was 1.0% and the “Drug content reduction (%)” value [2] was 0.8%. The Tg [3] was 117.8 °C, the “Water sorption (%) at 95 % RH” value (Water sorption analysis) was 11.6% and the “Drug release (in words)” value [9] was “no release”.
In the case of `O=S(=O)(O)c1ccc(Cl)cc1` [Chlorobenzenesulfonic, 4-chlorobenzenesulfonic acid], the pKa ([1]; value of the strongest acidity, ref [5] of supplement) is given as -0.61 [5].
For `O=S(=O)(O)c1cccc2c(S(=O)(=O)O)cccc12` [Naphthalenedisulfonic, 1,5-naphthalenedisulfonic acid], the pKa [1, 12] is given as 0.17 [3, 4].
With `C[C@]1(COc2ccc(N3CCC(Oc4ccc(OC(F)(F)F)cc4)CC3)cc2)Cn2cc([N+](=O)[O-])nc2O1.O=S(=O)(O)CCS(=O)(=O)O` [DLM-edisylate (1:1)] the Tg [3] was 53.9 °C and the “Water sorption (%) at 95 % RH” value (Water sorption analysis) was 59%.
In the case of `O=S(=O)(O)c1ccccc1` [Benzenesulfonic, benzenesulfonic acid], the pKa [1, 13] is given as -2.8.
For `CCS(=O)(=O)O` [Ethanesulfonic, Ethanesulfonic acid], the pKa [1, 13] is listed as -1.68 and the pKa ([1]; value of the strongest acidity, ref [3] of supplement) is listed as -2.05.
For `CC1(COc2ccc(N3CCC(Oc4ccc(OC(F)(F)F)cc4)CC3)cc2)Cn2cc([N+](=O)[O-])nc2O1.CC1(COc2ccc(N3CCC(Oc4ccc(OC(F)(F)F)cc4)CC3)cc2)Cn2cc([N+](=O)[O-])nc2O1.O=S(=O)(O)c1cccc2c(S(=O)(=O)O)cccc12` (stereo not shown) [Napadisylate (2:1)], the “Crystallinity by PXRD (in words)” value [11] was “partial crystallization”.
For `O.O.O=S(=O)(O)CCS(=O)(=O)O` [Ethanedisulfonic, 1,2-Ethanedisulfonic acid dihydrate], the pKa [1, 12] is given as -2.1 [3, 4].
With `C[C@]1(COc2ccc(N3CCC(Oc4ccc(OC(F)(F)F)cc4)CC3)cc2)Cn2cc([N+](=O)[O-])nc2O1.O=S(=O)(O)c1ccc(Cl)cc1` [Closylate] the “Impurity (19F NMR) (%)” value [2] was 2.3%, the Liquefaction [2] was “liquefaction” and the “Drug content reduction (%)” value [2] was 3.1%. The Tg [3] was 90.1 °C and the “Water sorption (%) at 95 % RH” value (Water sorption analysis) was 5.8%.

— article PMC9084191 (European Journal of Pharmaceutics and Biopharmaceutics, 2022)
